Results published in ChEMBL document CHEMBL1152192, “Carbonic anhydrase inhibitors. Inhibition of the beta-class enzyme from the yeast Saccharomyces cerevisiae with anions” (Bioorg Med Chem Lett, 2008).

Legend:
Carbonic anhydrase [1] = molecular target: T1, Carbonic anhydrase (Saccharomyces cerevisiae S288c, UniProt P53615); test: Inhibition of Saccharomyces cerevisiae carbonic anhydrase by stopped-flow CO2 hydration assay
T1 sequence (P53615 whole entry): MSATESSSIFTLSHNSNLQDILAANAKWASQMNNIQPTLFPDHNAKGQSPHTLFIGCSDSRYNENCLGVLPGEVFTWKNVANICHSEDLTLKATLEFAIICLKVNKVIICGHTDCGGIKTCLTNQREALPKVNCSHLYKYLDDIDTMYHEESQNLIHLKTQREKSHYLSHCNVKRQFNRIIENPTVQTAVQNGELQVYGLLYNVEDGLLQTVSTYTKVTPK

Carbonic anhydrase [2] = molecular target: T2, Carbonic anhydrase (Candida albicans (strain SC5314 / ATCC MYA-2876) (Yeast), UniProt Q5AJ71); test: Inhibition of Candida albicans carbonic anhydrase overexpressed in Escherichia coli BL21 (DE3) by CO2 hydration stopped-flow assay
T2 sequence (Q5AJ71 whole entry): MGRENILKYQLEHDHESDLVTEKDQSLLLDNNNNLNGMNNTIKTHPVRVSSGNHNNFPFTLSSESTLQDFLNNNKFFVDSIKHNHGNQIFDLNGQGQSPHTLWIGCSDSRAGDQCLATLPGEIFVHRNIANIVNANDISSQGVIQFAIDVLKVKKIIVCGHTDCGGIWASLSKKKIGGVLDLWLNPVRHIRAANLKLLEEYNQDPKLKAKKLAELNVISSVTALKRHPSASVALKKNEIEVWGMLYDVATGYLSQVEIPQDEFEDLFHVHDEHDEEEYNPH

Carbonic anhydrase [3] = molecular target: T1, Carbonic anhydrase; test: Inhibition of Saccharomyces cerevisiae carbonic anhydrase overexpressed in Escherichia coli BL21 (DE3) by CO2 hydration stopped-flow assay

Ki (Carbonic anhydrase [1]) [µM]	Compound	Ki (Carbonic anhydrase [2]) [µM]	Ki (Carbonic anhydrase [3]) [µM]
16	CCOc1ccc2nc(S(N)(=O)=O)sc2c1 [ETHOXZOLAMIDE]		
	NS(=O)(=O)O [SULFAMATE]	700	840
	NS(N)(=O)=O [SULFAMIDE]	300	8.7
	OB(O)c1ccccc1 [PHENYLBORONIC ACID]	30900	38200
